Experiments:
[1] = system: human T-cell leukemia cell lines Jurkat; assay: vector DNA introduced by liposomes of Table 3, NLuc enzyme activity, Jurkat; assay type: cell-based; settings: DOTAP as lipid forming a membrane; 0.8 μg DNA/well, 48 hours, FIG. 4
Procedure: (§1) The amount of vector DNA introduced to cells by the liposomes was quantified on the basis of expression of NLuc genes on vector DNA. For evaluating the expression of NLuc, emission thereof was measured with a microtiter plate reader (infinite F200 [trademark], manufactured by Tecan). As the cells, human T-cell leukemia cell lines Jurkat (purchased from American Type Culture Collection) and human peripheral blood mononuclear cells PBMCs (purchased from LONZA Japan) were adopted. After 100 μL of the Jurkat cell suspension (1×10^6 cells/mL) and 100 μL of the PBMC cell suspension (5×10^6 cells/mL) were individually inoculated on a 96-well plate, 1 μL of each liposome solution shown in Table 1 was added so that the DNA amount might be 0.8 μg/well. Thereafter, the cells were incubated in an incubator at 37° C. for 48 hours under an atmosphere of 5% CO2, and then enzyme activity of NLuc was measured. The measurement of NLuc enzyme activity was carried out by use of NanoGlo Luciferase Assay System ([trademark], manufactured by Promega Corporation) with a luminometer according to the manual attached to the kit. The results are shown in FIG. 4 (Jurkat) and FIG. 5 (PBMC).

[2] = system: human peripheral blood mononuclear cells PBMCs; assay: vector DNA introduced by liposomes of Table 3, NLuc enzyme activity, PBMC; assay type: cell-based; settings: set of compound (2-01) and DOPE; 0.8 μg DNA/well, 48 hours, FIG. 5
Procedure: as §1

[3] = system: Jurkat, MCF-7 and Huh-7 cells; assay: vector DNA introduced by liposomes of Table 7, NLuc enzyme activity; assay type: cell-based, human; settings: MCF-7, Huh-7, Jurkat; 48 hours, FIGS. 7 to 11
Procedure: The amount of vector DNA introduced to cells by the liposomes was quantified on the basis of expression of NLuc genes on vector DNA. For evaluating the expression of NLuc, emission thereof was measured with a microtiter plate reader (infinite F200 [trademark], manufactured by Tecan). As the cells, human T-cell leukemia cell lines Jurkat, human breast cancer cell lines MCF-7 and human liver cancer cell lines Huh-7 (purchased from American Type Culture Collection) were adopted. After 100 μL of the cell suspension (1×10^6 cells/mL) was inoculated on a 96-well plate, 1 μL of each liposome solution shown in Table 7 was added. Thereafter, the cells were incubated in an incubator at 37° C. for 48 hours under an atmosphere of 5% CO2, and then enzyme activity of NLuc was measured. The measurement of NLuc enzyme activity was carried out by use of NanoGlo Luciferase Assay System ([trademark], manufactured by Promega Corporation) with a luminometer according to the manual attached to the kit. FIGS. 7 to 9 show graphs in which Examples 4-1 and 4-2 are compared. […] FIGS. 10 and 11 show graphs in which Examples 4-2 and 4-3 are compared.

SMILES: CCCCCC/C=C/COC(=O)CCCCCCCC(CCCCCCCC(=O)OC/C=C/CCCCCC)CCCCN1CCN(C)CC1 [compound (1-02)]
- efficiency of NLuc gene expression in Jurkat cells [1]: higher efficiency of NLuc gene expression in Jurkat cells than the compound of the formula (1-01)

SMILES: CCCCCC/C=C/COC(=O)CCCCCCCC(CCCCCCCC(=O)OC/C=C/CCCCCC)CN(C)CCN(C)C [compound (1-01)]
- efficiency of NLuc gene expression in PBMC cells [2]: higher efficiency of NLuc gene expression in PBMC cells than the compound of the formula (1-02)

SMILES: CC1=C(/C=C/C(C)=C/C=C/C(C)=C/C(=O)OCCCN(C)CCOCCOCCN(C)CCCOC(=O)/C=C(C)/C=C/C=C(C)/C=C/C2=C(C)CCCC2(C)C)C(C)(C)CCC1 [compound (2-01)]
- expression efficiencies of NLuc genes (comparison in words) [3]: more easily introduced into adherent cells than into floating cells
